Measured values reported in patent US20250230155A1 (Vanderbilt University, priority 2021, published 2025).

Biological target: T1, human mAChR M4 (Homo sapiens, UniProt P08173)
T1 construct: expressed in transfected cells
T1 sequence (P08173 1-479): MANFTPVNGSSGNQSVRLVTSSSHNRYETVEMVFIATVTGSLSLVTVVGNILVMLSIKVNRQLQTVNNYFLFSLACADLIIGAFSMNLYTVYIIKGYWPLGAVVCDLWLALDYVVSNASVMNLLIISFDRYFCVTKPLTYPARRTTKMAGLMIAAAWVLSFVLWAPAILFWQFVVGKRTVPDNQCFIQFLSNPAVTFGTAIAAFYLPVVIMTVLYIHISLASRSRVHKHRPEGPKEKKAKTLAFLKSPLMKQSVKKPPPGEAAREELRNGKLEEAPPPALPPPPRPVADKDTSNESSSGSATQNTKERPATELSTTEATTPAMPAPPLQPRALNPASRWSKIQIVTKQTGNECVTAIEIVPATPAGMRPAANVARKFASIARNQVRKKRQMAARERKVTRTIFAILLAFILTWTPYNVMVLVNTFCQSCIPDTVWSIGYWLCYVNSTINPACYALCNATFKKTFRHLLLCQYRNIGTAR
Test: mAChR M4 cell-based functional assay (calcium mobilization, CHO-K1 hM4-Gqi5 cells)
Settings: for Emax at 30 µM: CHO-K1, % ACh maximum at 30 μM, human M4; for EC50: positive allosteric modulator activity, increase in the EC20 acetylcholine response, CHO-K1 hM4-Gqi5 cells, read-out: Human M4 EC50
Outline: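 CHO-K1 cells stably expressing human M4 with chimeric Gqi5, loaded with Fluo-4 AM; compounds given as 11-point 1:3 curves and calcium flux read on FDSS at 1 Hz. Acetylcholine EC20 added at 144 s, EC80 at 230 s; agonist, PAM (EC20 potentiation) and antagonist (EC80 inhibition) EC50/Emax from four-parameter fits.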

Row | Structure (SMILES) | Emax at 30 µM [%] | EC50 [µM]
1 | COc1ccc(Oc2cnc3c(c2)CN(c2ncc(C#N)cc2C)CC3)cn1 [compound 182, 6-[3-[(6-methoxy-3-pyridyl)oxy]-7,8-dihydro-5H-1,6-naphthyridin-6-yl]-5-methyl-pyridine-3-carbonitrile] | 75 | 0.439
2 | Cc1ncc(-c2cnc3c(c2)CN(c2ncc(C#N)cc2C)CC3)s1 [compound 185, 5-methyl-6-[3-(2-methylthiazol-5-yl)-7,8-dihydro-5H-1,6-naphthyridin-6-yl]pyridine-3-carbonitrile] | 101 | 0.211
3 | Cc1cc(C#N)cnc1N1CCc2ncc(-c3ccc(C4CC4)nc3)cc2C1 [compound 186, 6-[3-(6-cyclopropyl-3-pyridyl)-7,8-dihydro-5H-1,6-naphthyridin-6-yl]-5-methyl-pyridine-3-carbonitrile] | 97 | 0.318
4 | COc1ccc(-c2cnc3c(c2)CN(c2ncc(C#N)cc2C)CC3)cn1 [compound 188, 6-[3-(6-methoxy-3-pyridyl)-7,8-dihydro-5H-1,6-naphthyridin-6-yl]-5-methyl-pyridine-3-carbonitrile] | 106 | 0.244
5 | Cc1cc(-c2cnc3c(c2)CN(c2nnc(C(=O)NCc4ccncc4)c(C)c2C)CC3)ccn1 [compound 189, 4,5-dimethyl-6-[3-(2-methyl-4-pyridyl)-7,8-dihydro-5H-1,6-naphthyridin-6-yl]-N-(4-pyridylmethyl)pyridazine-3-carboxamide] | 93 | 0.199
6 | Cc1cc(C#N)cnc1N1CCc2ncc(-c3cccnc3)cc2C1 [compound 191, 5-methyl-6-[3-(3-pyridyl)-7,8-dihydro-5H-1,6-naphthyridin-6-yl]pyridine-3-carbonitrile] | 98 | 0.187
7 | Cc1nc(Cl)c(C)c(N2CCc3ncc(-c4cn(C)nc4C)cc3C2)n1 [compound 192, 6-(6-chloro-2,5-dimethyl-pyrimidin-4-yl)-3-(1,3-dimethylpyrazol-4-yl)-7,8-dihydro-5H-1,6-naphthyridine] | 90 | 0.169
8 | Cc1nc(Cl)c(C)c(N2CCc3ncc(-c4c(C)nn(C)c4C)cc3C2)n1 [compound 193, 6-(6-chloro-2,5-dimethyl-pyrimidin-4-yl)-3-(1,3,5-trimethylpyrazol-4-yl)-7,8-dihydro-5H-1,6-naphthyridine] | 82 | 0.605
9 | Cc1nc(Cl)c(C)c(N2CCc3ncc(-c4cnn(CC5CC5)c4)cc3C2)n1 [compound 194, 6-(6-chloro-2,5-dimethyl-pyrimidin-4-yl)-3-[1-(cyclopropylmethyl)pyrazol-4-yl]-7,8-dihydro-5H-1,6-naphthyridine] | 93 | 0.211

Compounds with a lower EC50, results first:

Row | Emax at 30 µM [%] | EC50 [µM] | Structure (SMILES)
10 | 91 | 0.164 | Cc1cc(C#N)cnc1N1CCc2ncc(Oc3ccc4c(cnn4C)c3)cc2C1 [compound 183, 5-methyl-6-[3-(1-methylindazol-5-yl)oxy-7,8-dihydro-5H-1,6-naphthyridin-6-yl]pyridine-3-carbonitrile]
11 | 111 | 0.106 | Cc1nc(C)c(-c2cnc3c(c2)CN(c2ncc(C#N)cc2C)CC3)s1 [compound 184, 6-[3-(2,4-dimethylthiazol-5-yl)-7,8-dihydro-5H-1,6-naphthyridin-6-yl]-5-methyl-pyridine-3-carbonitrile]
12 | 108 | 0.138 | Cc1ccc(-c2cnc3c(c2)CN(c2ncc(C#N)cc2C)CC3)cn1 [compound 187, 5-methyl-6-[3-(6-methyl-3-pyridyl)-7,8-dihydro-5H-1,6-naphthyridin-6-yl]pyridine-3-carbonitrile]
13 | 105 | 0.136 | Cc1c(C(=O)NCc2ccncc2)nnc(N2CCc3ncc(Nc4ccccc4F)cc3C2)c1C [compound 190, 6-[3-(2-fluoroanilino)-7,8-dihydro-5H-1,6-naphthyridin-6-yl]-4,5-dimethyl-N-(4-pyridylmethyl)pyridazine-3-carboxamide]
